The record followed here is ChEMBL document CHEMBL3612067, “Synthesis of a series of unsaturated ketone derivatives as selective and reversible monoamine oxidase inhibitors” (Bioorg Med Chem, 2015).

The target of data set [1] is T1, Amine oxidase [flavin-containing] A (Homo sapiens, UniProt P21397).
T1 sequence (P21397 whole entry): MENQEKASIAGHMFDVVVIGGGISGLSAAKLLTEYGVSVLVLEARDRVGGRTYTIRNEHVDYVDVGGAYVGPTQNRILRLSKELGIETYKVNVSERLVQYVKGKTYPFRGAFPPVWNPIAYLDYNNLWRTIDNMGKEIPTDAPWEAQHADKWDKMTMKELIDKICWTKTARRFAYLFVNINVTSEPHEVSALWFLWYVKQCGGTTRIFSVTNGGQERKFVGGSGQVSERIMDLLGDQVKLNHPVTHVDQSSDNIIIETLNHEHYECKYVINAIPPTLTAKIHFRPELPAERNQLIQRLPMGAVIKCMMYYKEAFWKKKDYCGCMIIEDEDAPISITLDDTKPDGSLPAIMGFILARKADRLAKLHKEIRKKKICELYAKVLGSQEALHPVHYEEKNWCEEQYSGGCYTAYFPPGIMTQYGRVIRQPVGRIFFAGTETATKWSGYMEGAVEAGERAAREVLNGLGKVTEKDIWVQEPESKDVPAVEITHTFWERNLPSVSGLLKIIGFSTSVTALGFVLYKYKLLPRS

The target of data set [2] is T2, Amine oxidase [flavin-containing] B (Homo sapiens, UniProt P27338).
T2 sequence (P27338 whole entry): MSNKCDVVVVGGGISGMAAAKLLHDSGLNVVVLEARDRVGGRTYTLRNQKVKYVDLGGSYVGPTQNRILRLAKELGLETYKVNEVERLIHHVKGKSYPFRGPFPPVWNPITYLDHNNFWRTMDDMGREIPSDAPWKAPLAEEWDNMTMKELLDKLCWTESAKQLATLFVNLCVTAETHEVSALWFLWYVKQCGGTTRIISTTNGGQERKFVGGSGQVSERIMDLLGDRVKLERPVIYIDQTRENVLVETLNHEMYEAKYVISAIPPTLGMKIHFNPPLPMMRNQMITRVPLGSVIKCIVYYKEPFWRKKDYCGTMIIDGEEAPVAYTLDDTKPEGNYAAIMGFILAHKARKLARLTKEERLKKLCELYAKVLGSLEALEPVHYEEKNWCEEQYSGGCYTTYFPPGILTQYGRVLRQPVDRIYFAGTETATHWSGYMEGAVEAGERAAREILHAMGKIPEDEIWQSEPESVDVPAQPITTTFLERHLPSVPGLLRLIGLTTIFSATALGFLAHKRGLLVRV

Data set [3] deals with T2, Amine oxidase [flavin-containing] B. The conditions noted are these: 0.5 h, read-out: INH.
Data set [4] can be described thus: Effect on H2O2 scavenging activity of the compound up to 50 uM after 1.5 hrs by Amplex red/horseradish peroxidase detection method. Format: physicochemical.
Data set [5] deals with T2, Amine oxidase [flavin-containing] B. Put plainly: Reversible inhibition of recombinant human MAOB using benzylamine as substrate at 2 uM measured after 3 times washout of drug by Amplex red based spectrophotometric analysis.
Data set [6] can be described thus: Effect on H2O2 scavenging activity of the compound after 1.5 hrs by Amplex red/horseradish peroxidase detection method. Format: physicochemical.

With `O=C(/C=C/c1ccccc1Cl)Nc1cccc(O)c1`, the IC50 in data set [1] is over 100 µM; in data set [2], 5.21 µM.

Turning to `COc1ccc(C(=O)/C=C/c2ccccc2C(F)(F)F)cc1`, the IC50 in data set [1] was over 100 µM; in data set [2] it was 0.016 µM. Besides, the inhibition at 2 µM in data set [3] was over 80%. Also, in data set [4], the Activity entry was “Not Active”. Also, the “inhibition (INH)” value in data set [5] is “Active”.

Regarding `O=C(/C=C/c1ccccc1Cl)Nc1ccccc1`, the values for the IC50 in data set [1] and in data set [2] were over 100 µM and 2.82 µM, respectively.

Turning to `COc1cccc(C(=O)/C=C/c2ccccc2)c1`, the IC50 in data set [1] was over 100 µM; in data set [2], 0.793 µM.

On to `COc1ccccc1C(=O)/C=C/c1ccccc1C(F)(F)F`, for which the IC50 in data set [1] is over 100 µM; in data set [2], 0.253 µM.

Take `COc1cccc(C(=O)/C=C/c2ccccc2C(F)(F)F)c1`: the IC50 in data set [1] is over 100 µM; in data set [2], 2.12 µM.

On to `COc1ccc(C(=O)/C=C/c2cccc(C(F)(F)F)c2)cc1`, for which the IC50 in data set [1] is over 100 µM; in data set [2], 0.145 µM.

As to `COc1ccc(C(=O)/C=C/c2ccccc2Cl)cc1`, the IC50 in data set [1] was over 100 µM; in data set [2], 0.069 µM.

`COc1ccc(C(=O)/C=C/c2ccccc2OC)cc1`: the IC50 in data set [1] is over 100 µM; in data set [2] it was 0.419 µM.

Regarding `COc1ccccc1C(=O)/C=C/c1ccccc1`, the figures for the IC50 in data set [1] and in data set [2] were over 100 µM and over 10 µM, respectively.

Regarding `COc1ccccc1/C=C/C(=O)c1ccc(O)cc1`, the IC50 was over 100 µM in data set [1] and 0.624 µM in data set [2].

As to `COc1ccc(C(=O)/C=C/c2cccc(OC)c2)cc1`, the IC50 in data set [1] was over 100 µM; in data set [2] it was 1.4 µM.

Turning to `O=C(/C=C/c1ccccc1C(F)(F)F)c1ccc(O)cc1`, the IC50 in data set [1] was over 100 µM; in data set [2], 0.057 µM.

Consider `O=C(/C=C/c1ccccc1C(F)(F)F)Nc1ccccc1`, for which the IC50 was over 100 µM in data set [1] and 8.39 µM in data set [2].

Regarding `COc1ccc(NC(=O)/C=C/c2ccccc2C(F)(F)F)cc1`, the values for the IC50 in data set [1] and in data set [2] were over 100 µM and over 10 µM, respectively.

Consider `O=C(/C=C/c1ccccc1C(F)(F)F)Nc1ccc(O)cc1`, for which the IC50 is 9.22 µM in data set [1] and over 10 µM in data set [2].

In the case of `O=C(/C=C/c1ccccc1Cl)Nc1ccc(O)cc1`, the IC50 in data set [1] was 16.7 µM; in data set [2], over 10 µM.

As for `O=C(/C=C/c1ccccc1C(F)(F)F)Nc1cccc(O)c1`, the IC50 in data set [1] was over 100 µM; in data set [2], 5.98 µM.

Consider `O=C(/C=C/c1ccccc1C(F)(F)F)Nc1cccc(F)c1`, for which the IC50 in data set [1] is over 100 µM; in data set [2] it was 3.37 µM.

In the case of `O=C(/C=C/c1cccc(C(F)(F)F)c1)Nc1cccc(F)c1`, the IC50 in data set [1] was over 100 µM; in data set [2], 4.89 µM.

Take `O=C(/C=C/c1ccc(C(F)(F)F)cc1)Nc1cccc(F)c1`: the values for the IC50 in data set [1] and in data set [2] were over 100 µM and 0.283 µM, respectively.

In the case of `O=C(/C=C/c1ccc(C(F)(F)F)cc1)Nc1ccccc1F`, the IC50 in data set [1] is over 100 µM; in data set [2] it was 0.58 µM.

Consider `O=C(/C=C/c1ccc(C(F)(F)F)cc1)Nc1ccc(F)cc1`, for which the IC50 in data set [1] is over 100 µM; in data set [2], 0.223 µM.

`O=C(/C=C/c1ccccc1C(F)(F)F)Oc1ccccc1`: the IC50 in data set [1] is over 100 µM; in data set [2], 5.88 µM.

Consider `COc1ccc(OC(=O)/C=C/c2ccccc2C(F)(F)F)cc1`, for which the half-inhibitory concentration (IC50) was over 100 µM in data set [1] and 2.59 µM in data set [2].

As to `COc1ccc(OC(=O)/C=C/c2ccccc2Cl)cc1`, the IC50 in data set [1] was over 100 µM; in data set [2], 0.937 µM.

`COc1ccc(C(=O)/C=C/c2ccc(C(F)(F)F)cc2)cc1`: the 50% inhibitory concentration (IC50) in data set [1] was over 100 µM; in data set [2], 0.199 µM.

With `COc1ccc(NC(=O)/C=C/c2ccccc2Cl)cc1`, the values for the IC50 in data set [1] and in data set [2] were over 100 µM and over 10 µM, respectively.

For `COc1ccc(C(=O)/C=C/c2ccccc2F)cc1`, the IC50 in data set [1] was over 100 µM; in data set [2], 0.056 µM. In data set [3], the inhibition at 2 µM is over 80%. The Activity entry in data set [4] is listed as “Not Active”. The “inhibition (INH)” value in data set [5] is “Active”.

For `COc1ccc(C(=O)/C=C/c2ccccc2)cc1` [4'-METHOXYCHALCONE], the IC50 was over 100 µM in data set [1] and 0.471 µM in data set [2].

Regarding `COc1ccc(/C=C/C(=O)c2ccc(OC)cc2)cc1` [4,4'-DIMETHOXYCHALCONE], the IC50 in data set [1] was over 100 µM; in data set [2] it was over 10 µM.

Regarding `O=C(O[C@@H]1Cc2c(O)cc(O)cc2O[C@@H]1c1cc(O)c(O)c(O)c1)c1cc(O)c(O)c(O)c1` [EPIGALOCATECHIN GALLATE], in data set [6], the Activity result is reported as “Dose-dependent effect”.

For the molecule `C[C@H](NCc1ccc(OCc2cccc(F)c2)cc1)C(N)=O` [SAFINAMIDE], the “inhibition (INH)” value in data set [5] was “Not Active”.

In general, IC50 refers to the concentration that inhibits the measured activity by half. Lower therefore signals greater potency.
